Laboratory results reported in the supplement of paper PMC8882468.

What follows are compounds tested on HCI-016 (organoid from a triple-negative breast cancer xenograft) (assay: CTG-3D luminescence at 96 h relative to day-0 seeding control (ratio to day 0); higher = more growth / less cytotoxicity; PDxO 3D drug screen, 96 h, CTG-3D normalised to day-0 seeding control.). Conditions: 625 fM; days in culture: 190.
For `C[C@H](NC(=O)CCC(F)(F)F)C(=O)N[C@@H]1C(=O)N(CCO)c2ncccc2-c2ccccc21` [crenigacestat], the “CTG-3D luminescence at 96 h” value was 0.976. With `COc1cccc2c1C(=O)c1c(O)c3c(c(O)c1C2=O)C[C@@](O)(C(=O)CO)C[C@@H]3O[C@H]1C[C@H](N)[C@H](O)[C@H](C)O1` [doxorubicin] the “CTG-3D luminescence at 96 h” value was 1.26. `C[C@]12CC[C@@H]3c4ccc(O)cc4C[C@@H](CCCCCCCCC[S+]([O-])CCCC(F)(F)C(F)(F)F)[C@H]3[C@@H]1CC[C@@H]2O` (stereo partly specified) [fulvestrant] was tested, and the “CTG-3D luminescence at 96 h” value was 1.14. For `Nc1ccn([C@@H]2O[C@H](CO)[C@@H](O)C2(F)F)c(=O)n1` [gemcitabine], the “CTG-3D luminescence at 96 h” value was 1.21. With `C=CC(=O)N1CCC[C@@H](n2nc(-c3ccc(Oc4ccccc4)cc3)c3c(N)ncnc32)C1` [ibrutinib] the “CTG-3D luminescence at 96 h” value was 1.37. `CN(Cc1cnc2nc(N)nc(N)c2n1)c1ccc(C(=O)N[C@@H](CCC(=O)O)C(=O)O)cc1` [methotrexate] was tested, and the “CTG-3D luminescence at 96 h” value was 0.969. `CC1(C)CCC(c2ccc(Cl)cc2)=C(CN2CCN(c3ccc(C(=O)NS(=O)(=O)c4ccc(N[C@H](CCN5CCOCC5)CSc5ccccc5)c(S(=O)(=O)C(F)(F)F)c4)cc3)CC2)C1` [navitoclax] was tested, and the “CTG-3D luminescence at 96 h” value was 1.24. `NC(=O)c1cccc2cn(-c3ccc([C@@H]4CCCNC4)cc3)nc12` [niraparib] was tested, and the “CTG-3D luminescence at 96 h” value was 1.59.

Same assay, conditions: 625 fM; days in culture: 199
With `C[C@H](NC(=O)CCC(F)(F)F)C(=O)N[C@@H]1C(=O)N(CCO)c2ncccc2-c2ccccc21` [crenigacestat] the “CTG-3D luminescence at 96 h” value was 1.76. `COc1cccc2c1C(=O)c1c(O)c3c(c(O)c1C2=O)C[C@@](O)(C(=O)CO)C[C@@H]3O[C@H]1C[C@H](N)[C@H](O)[C@H](C)O1` [doxorubicin] was tested, and the “CTG-3D luminescence at 96 h” value was 1.7. In the case of `C[C@]12CC[C@@H]3c4ccc(O)cc4C[C@@H](CCCCCCCCC[S+]([O-])CCCC(F)(F)C(F)(F)F)[C@H]3[C@@H]1CC[C@@H]2O` (stereo partly specified) [fulvestrant], the “CTG-3D luminescence at 96 h” value is reported as 2.07. With `Nc1ccn([C@@H]2O[C@H](CO)[C@@H](O)C2(F)F)c(=O)n1` [gemcitabine] the “CTG-3D luminescence at 96 h” value was 1.49. For `C=CC(=O)N1CCC[C@@H](n2nc(-c3ccc(Oc4ccccc4)cc3)c3c(N)ncnc32)C1` [ibrutinib], the “CTG-3D luminescence at 96 h” value was 1.72. `CN(Cc1cnc2nc(N)nc(N)c2n1)c1ccc(C(=O)N[C@@H](CCC(=O)O)C(=O)O)cc1` [methotrexate] was tested, and the “CTG-3D luminescence at 96 h” value was 1.73. In the case of `CC1(C)CCC(c2ccc(Cl)cc2)=C(CN2CCN(c3ccc(C(=O)NS(=O)(=O)c4ccc(N[C@H](CCN5CCOCC5)CSc5ccccc5)c(S(=O)(=O)C(F)(F)F)c4)cc3)CC2)C1` [navitoclax], the “CTG-3D luminescence at 96 h” value is reported as 1.99. With `NC(=O)c1cccc2cn(-c3ccc([C@@H]4CCCNC4)cc3)nc12` [niraparib] the “CTG-3D luminescence at 96 h” value was 2.02.

The compounds below were run on HCI-025 (organoid from a breast cancer xenograft) in the same assay as above. Conditions: 12.5 pM; days in culture: 172.
`C[C@H](NC(=O)CCC(F)(F)F)C(=O)N[C@@H]1C(=O)N(CCO)c2ncccc2-c2ccccc21` [crenigacestat] was tested, and the “CTG-3D luminescence at 96 h” value was 2.73. With `COc1cccc2c1C(=O)c1c(O)c3c(c(O)c1C2=O)C[C@@](O)(C(=O)CO)C[C@@H]3O[C@H]1C[C@H](N)[C@H](O)[C@H](C)O1` [doxorubicin] the “CTG-3D luminescence at 96 h” value was 2.56. `C[C@]12CC[C@@H]3c4ccc(O)cc4C[C@@H](CCCCCCCCC[S+]([O-])CCCC(F)(F)C(F)(F)F)[C@H]3[C@@H]1CC[C@@H]2O` (stereo partly specified) [fulvestrant] was tested, and the “CTG-3D luminescence at 96 h” value was 3.02. In the case of `Nc1ccn([C@@H]2O[C@H](CO)[C@@H](O)C2(F)F)c(=O)n1` [gemcitabine], the “CTG-3D luminescence at 96 h” value is reported as 3.01. For `C=CC(=O)N1CCC[C@@H](n2nc(-c3ccc(Oc4ccccc4)cc3)c3c(N)ncnc32)C1` [ibrutinib], the “CTG-3D luminescence at 96 h” value was 2.25. `CN(Cc1cnc2nc(N)nc(N)c2n1)c1ccc(C(=O)N[C@@H](CCC(=O)O)C(=O)O)cc1` [methotrexate] was tested, and the “CTG-3D luminescence at 96 h” value was 2.75. With `CC1(C)CCC(c2ccc(Cl)cc2)=C(CN2CCN(c3ccc(C(=O)NS(=O)(=O)c4ccc(N[C@H](CCN5CCOCC5)CSc5ccccc5)c(S(=O)(=O)C(F)(F)F)c4)cc3)CC2)C1` [navitoclax] the “CTG-3D luminescence at 96 h” value was 3.28. In the case of `NC(=O)c1cccc2cn(-c3ccc([C@@H]4CCCNC4)cc3)nc12` [niraparib], the “CTG-3D luminescence at 96 h” value is reported as 2.92.

Same assay, conditions: 12.5 pM; days in culture: 209
With `C[C@H](NC(=O)CCC(F)(F)F)C(=O)N[C@@H]1C(=O)N(CCO)c2ncccc2-c2ccccc21` [crenigacestat] the “CTG-3D luminescence at 96 h” value was 2.02. In the case of `COc1cccc2c1C(=O)c1c(O)c3c(c(O)c1C2=O)C[C@@](O)(C(=O)CO)C[C@@H]3O[C@H]1C[C@H](N)[C@H](O)[C@H](C)O1` [doxorubicin], the “CTG-3D luminescence at 96 h” value is reported as 2.17. `C[C@]12CC[C@@H]3c4ccc(O)cc4C[C@@H](CCCCCCCCC[S+]([O-])CCCC(F)(F)C(F)(F)F)[C@H]3[C@@H]1CC[C@@H]2O` (stereo partly specified) [fulvestrant] was tested, and the “CTG-3D luminescence at 96 h” value was 1.87. In the case of `Nc1ccn([C@@H]2O[C@H](CO)[C@@H](O)C2(F)F)c(=O)n1` [gemcitabine], the “CTG-3D luminescence at 96 h” value is reported as 2.06. With `C=CC(=O)N1CCC[C@@H](n2nc(-c3ccc(Oc4ccccc4)cc3)c3c(N)ncnc32)C1` [ibrutinib] the “CTG-3D luminescence at 96 h” value was 2.38. For `CN(Cc1cnc2nc(N)nc(N)c2n1)c1ccc(C(=O)N[C@@H](CCC(=O)O)C(=O)O)cc1` [methotrexate], the “CTG-3D luminescence at 96 h” value was 1.86. In the case of `CC1(C)CCC(c2ccc(Cl)cc2)=C(CN2CCN(c3ccc(C(=O)NS(=O)(=O)c4ccc(N[C@H](CCN5CCOCC5)CSc5ccccc5)c(S(=O)(=O)C(F)(F)F)c4)cc3)CC2)C1` [navitoclax], the “CTG-3D luminescence at 96 h” value is reported as 1.95. With `NC(=O)c1cccc2cn(-c3ccc([C@@H]4CCCNC4)cc3)nc12` [niraparib] the “CTG-3D luminescence at 96 h” value was 1.9.

Same assay, conditions: 12.5 pM; days in culture: 218
`C[C@H](NC(=O)CCC(F)(F)F)C(=O)N[C@@H]1C(=O)N(CCO)c2ncccc2-c2ccccc21` [crenigacestat] was tested, and the “CTG-3D luminescence at 96 h” value was 1.89. With `COc1cccc2c1C(=O)c1c(O)c3c(c(O)c1C2=O)C[C@@](O)(C(=O)CO)C[C@@H]3O[C@H]1C[C@H](N)[C@H](O)[C@H](C)O1` [doxorubicin] the “CTG-3D luminescence at 96 h” value was 1.71. In the case of `C[C@]12CC[C@@H]3c4ccc(O)cc4C[C@@H](CCCCCCCCC[S+]([O-])CCCC(F)(F)C(F)(F)F)[C@H]3[C@@H]1CC[C@@H]2O` (stereo partly specified) [fulvestrant], the “CTG-3D luminescence at 96 h” value is reported as 1.47. With `Nc1ccn([C@@H]2O[C@H](CO)[C@@H](O)C2(F)F)c(=O)n1` [gemcitabine] the “CTG-3D luminescence at 96 h” value was 1.86. In the case of `C=CC(=O)N1CCC[C@@H](n2nc(-c3ccc(Oc4ccccc4)cc3)c3c(N)ncnc32)C1` [ibrutinib], the “CTG-3D luminescence at 96 h” value is reported as 1.78. For `CN(Cc1cnc2nc(N)nc(N)c2n1)c1ccc(C(=O)N[C@@H](CCC(=O)O)C(=O)O)cc1` [methotrexate], the “CTG-3D luminescence at 96 h” value was 1.83. With `CC1(C)CCC(c2ccc(Cl)cc2)=C(CN2CCN(c3ccc(C(=O)NS(=O)(=O)c4ccc(N[C@H](CCN5CCOCC5)CSc5ccccc5)c(S(=O)(=O)C(F)(F)F)c4)cc3)CC2)C1` [navitoclax] the “CTG-3D luminescence at 96 h” value was 1.36. `NC(=O)c1cccc2cn(-c3ccc([C@@H]4CCCNC4)cc3)nc12` [niraparib] was tested, and the “CTG-3D luminescence at 96 h” value was 1.38.

Same assay, conditions: 0.00025 µM; days in culture: 172
In the case of `C[C@H](NC(=O)CCC(F)(F)F)C(=O)N[C@@H]1C(=O)N(CCO)c2ncccc2-c2ccccc21` [crenigacestat], the “CTG-3D luminescence at 96 h” value is reported as 1.6. With `COc1cccc2c1C(=O)c1c(O)c3c(c(O)c1C2=O)C[C@@](O)(C(=O)CO)C[C@@H]3O[C@H]1C[C@H](N)[C@H](O)[C@H](C)O1` [doxorubicin] the “CTG-3D luminescence at 96 h” value was 1.67. In the case of `C[C@]12CC[C@@H]3c4ccc(O)cc4C[C@@H](CCCCCCCCC[S+]([O-])CCCC(F)(F)C(F)(F)F)[C@H]3[C@@H]1CC[C@@H]2O` (stereo partly specified) [fulvestrant], the “CTG-3D luminescence at 96 h” value is reported as 1.74. With `Nc1ccn([C@@H]2O[C@H](CO)[C@@H](O)C2(F)F)c(=O)n1` [gemcitabine] the “CTG-3D luminescence at 96 h” value was 1.72. For `C=CC(=O)N1CCC[C@@H](n2nc(-c3ccc(Oc4ccccc4)cc3)c3c(N)ncnc32)C1` [ibrutinib], the “CTG-3D luminescence at 96 h” value was 1.2. `CN(Cc1cnc2nc(N)nc(N)c2n1)c1ccc(C(=O)N[C@@H](CCC(=O)O)C(=O)O)cc1` [methotrexate] was tested, and the “CTG-3D luminescence at 96 h” value was 2.07. With `CC1(C)CCC(c2ccc(Cl)cc2)=C(CN2CCN(c3ccc(C(=O)NS(=O)(=O)c4ccc(N[C@H](CCN5CCOCC5)CSc5ccccc5)c(S(=O)(=O)C(F)(F)F)c4)cc3)CC2)C1` [navitoclax] the “CTG-3D luminescence at 96 h” value was 1.84. `NC(=O)c1cccc2cn(-c3ccc([C@@H]4CCCNC4)cc3)nc12` [niraparib] was tested, and the “CTG-3D luminescence at 96 h” value was 1.82.

Same assay, conditions: 0.00025 µM; days in culture: 209
With `C[C@H](NC(=O)CCC(F)(F)F)C(=O)N[C@@H]1C(=O)N(CCO)c2ncccc2-c2ccccc21` [crenigacestat] the “CTG-3D luminescence at 96 h” value was 2.25. In the case of `COc1cccc2c1C(=O)c1c(O)c3c(c(O)c1C2=O)C[C@@](O)(C(=O)CO)C[C@@H]3O[C@H]1C[C@H](N)[C@H](O)[C@H](C)O1` [doxorubicin], the “CTG-3D luminescence at 96 h” value is reported as 2.18. With `C[C@]12CC[C@@H]3c4ccc(O)cc4C[C@@H](CCCCCCCCC[S+]([O-])CCCC(F)(F)C(F)(F)F)[C@H]3[C@@H]1CC[C@@H]2O` (stereo partly specified) [fulvestrant] the “CTG-3D luminescence at 96 h” value was 1.6. With `Nc1ccn([C@@H]2O[C@H](CO)[C@@H](O)C2(F)F)c(=O)n1` [gemcitabine] the “CTG-3D luminescence at 96 h” value was 2.11. For `C=CC(=O)N1CCC[C@@H](n2nc(-c3ccc(Oc4ccccc4)cc3)c3c(N)ncnc32)C1` [ibrutinib], the “CTG-3D luminescence at 96 h” value was 2.13. `CN(Cc1cnc2nc(N)nc(N)c2n1)c1ccc(C(=O)N[C@@H](CCC(=O)O)C(=O)O)cc1` [methotrexate] was tested, and the “CTG-3D luminescence at 96 h” value was 1.56. For `CC1(C)CCC(c2ccc(Cl)cc2)=C(CN2CCN(c3ccc(C(=O)NS(=O)(=O)c4ccc(N[C@H](CCN5CCOCC5)CSc5ccccc5)c(S(=O)(=O)C(F)(F)F)c4)cc3)CC2)C1` [navitoclax], the “CTG-3D luminescence at 96 h” value was 2.53. In the case of `NC(=O)c1cccc2cn(-c3ccc([C@@H]4CCCNC4)cc3)nc12` [niraparib], the “CTG-3D luminescence at 96 h” value is reported as 2.67.
